Measured values as given in US12403161B2, “Compositions for drug delivery and methods of use thereof” (Stellular Bio, Inc., priority 2018, dated 2025).
Structures can show the parent of a compound that is named as a salt.

Assays:
[1] = system: iPSC differentiation cultures on Laminin 521; assay: WNT agonist addition to iPSC directed differentiation (immunofluorescence); format: cell-based, human; settings: for Stage 1 differentiation efficiency at day 6 (CD31 and CD34 immunofluorescence): 0.6 μM CHIR98014 or 6 μM CHIR99021 for the first 48 hours
Text: WNT signaling is important during development. The GSK3 kinase inhibitors CHIR98014 and CHIR99021 act as WNT agonists. […] The control and CHIR98014 cultures were then transitioned to Stage 2, where the production and release of preMKs were tracked by immunofluorescence staining of CD41 and CD43.

human washed platelets = assay: Small-molecule loading of human washed platelets by passive diffusion; format: cell-based; settings: 100 μM, 1e7 platelets in 1 ml, ambient temperature, dialysis cassette
Procedure: 100 μM of Doxorubicin was used with a preparation of 1e7 platelets in 1 ml of buffer and incubated at ambient temperature for 30, 120, 240, and 1440 minutes under constant agitation on an orbital shaker in a dialysis cassette (Thermofisher #88400). […] A kinetic study was employed to understand the minimum and maximum amount of time necessary for doxorubicin encapsulation in the washed platelets.

[2] = system: iPSC differentiation cultures; assay: Order and timing of Stage 1 growth factor addition, preMK yields; format: cell-based, human; settings: Experiment B
[3] = system: iPSC 3D differentiation cultures; assay: Soluble Laminin 521 addition in 3D iPSC differentiation, preMK yields; format: cell-based, human; settings: for preMK yields in Stage 2 vs control without addition: addition at Day −1 or Day 6
Procedure: […] 24 hours later, the media was replaced with Stage 1 media and media exchanges were performed for 6 days. […] Media was then exchanged with Stage 2 media, with or without soluble Laminin 521. 24 hours later, daily half media exchanges were performed for up to 6 additional days.

Molecule: Cc1c[nH]c(-c2cnc(NCCNc3ccc(C#N)cn3)nc2-c2ccc(Cl)cc2Cl)n1 [CHIR99021]
- Stage 1 differentiation efficiency at day 6 (CD31 and CD34 immunofluorescence) [1]: dramatic increase

Molecule: COc1cccc2c1C(=O)c1c(O)c3c(c(O)c1C2=O)C[C@@](O)(C(=O)CO)C[C@@H]3O[C@H]1C[C@H](N)[C@H](O)[C@H](C)O1 [doxorubicin, Doxorubicin hydrochloride]
- incubation time sufficient to see detectable doxorubicin in platelets (human washed platelets): 30 min

Molecule: CHIR98014
- Stage 1 differentiation efficiency at day 6 (CD31 and CD34 immunofluorescence) [1]: dramatic increase
- Stage 2 output (visual estimation of CD41+ cells) ([1]; 0.6 μM in first 48 hours of Stage 1): higher output

Molecule: FGF2: basic fibroblast growth factor, Stage 1 media growth factor
- requirement of growth factor during Stage 1 differentiation [2]: critical for differentiation to proceed effectively

Molecule: Laminin 521: soluble recombinant human protein Laminin 521
- preMK yields in Stage 2 vs control without addition ([3]; 96-well U-bottom ultra-low adherent plate): increased the preMK yields
- preMK yields in Stage 2 vs control without addition ([3]; agitated 6-well ultra-low adherent plate on orbital shaker): increased the preMK yields
- Laminin 521 effect on preMK yields with single-cell passaged iPSCs ([3]; self-aggregation in NutriStem): effect was amplified

B1: BMP4: bone morphogenic protein 4, Stage 1 media growth factor (protein, UniProt P12644 293-408, looked up)
Bone morphogenetic protein 4: SPKHHSQRARKKNKNCRRHSLYVDFSDVGWNDWIVAPPGYQAFYCHGDCPFPLADHLNSTNHAIVQTLVNSVNSSIPKACCVPTELSAISMLYLDEYDKVVLKNYQEMVVEGCGCR
- requirement of growth factor during Stage 1 differentiation [2]: dispensable beyond 24 hours
